Laboratory results from US10927107B2, “Phenyl [a]indole[2,3-g]quinolizine compounds, preparation method therefor, pharmaceutical composition, and applications thereof” (Shanghai Institute of Materia Medica, Chinese Academy of …, priority 2016, dated 2021).

Tested on: HepG2 cells
Test: In vitro lipid-lowering activity: DiI-LDL uptake in HepG2 cells
Assay type: cell-based
Settings: Homo sapiens, test compound 5 uM, 24 h, DiI-LDL 20 ug/ml, 3 h, FLU of sample group/FLU of blank group x100%, read-out: LDL uptake rate
Procedure: HepG2 cells were inoculated in 24-well plates, cultured in DMEM containing 10% FBS for 24 h or 48 h, and then transferred to DMEM containing 2% defatted serum and cultivated for 24 h. The old culture solution was discarded and replaced with new 2% defatted serum DMEM, and a test compound (the working concentration of which is 5 uM, triplicate for each sample) was added and incubated for 24 h. The old culture solution was abandoned and DMEM containing DiI-LDL (20 ug/ml) was added (300 ul/per 24 wells), incubated for 3 h. DMEM containing DiI-LDL was discarded, and cells were rinsed twice with PBS containing 0.4% BSA, and 3 times with PBS to remove excess DiI-LDL. Isopropanol was added (500 ul/per well of a 24-well plate), and was kept in darkness. After shaken for 20 minutes, 200 ul of supernatant was sucked to a black fluorescent plate, and fluorescence intensity (FLU) was detected at excitation light 520 nm and emission light 578 nm. The experimental results were calculated: LDL uptake rate=(FLU value of sample group to be tested/FLU value of blank group)×100%.

With COc1cccc(COc2cc3c(cc2OC)CCN2Cc4c(c5cc(OC)ccc5n4CO)CC32)c1 (stereo not drawn) [Example A13, (3,12-Dimethoxy-2-((3-methoxybenzyl)oxo)-5,6,14,14a-tetrahydroindolo[3′,2′:4,5]pyridine[2,1-a]isoquinoline-9(8H)-yl)methanol] the activity at 5 µM was 107%.

For COc1ccc2c(c1)c1c(n2CO)CN2CCc3cc(OC)c(OCc4ccccc4F)cc3C2C1 (stereo not drawn) [Example A9, (2-((2-fluorobenzyl)oxy)-3,12-dimethoxy-5,6,14,14a-tetrahydroindolo[3′,2′:4,5]pyridine[2,1-a]isoquinoline-9(8H)-yl)methanol], the activity at 5 µM was 113%.

COc1ccc2c(c1)c1c(n2CO)CN2CCc3cc(OC)c(OCc4ccccc4)cc3[C@H]2C1 [(R)-A1] was tested, and the activity at 5 µM was 185%.

COc1ccc2c(c1)c1c(n2CO)CN2CCc3cc(OCc4cccc(C)c4)c(OC)cc3C2C1 (stereo not drawn) [Example A142, (2,12-Dimethoxy-3-((3-methylbenzyl)oxo)-5,6,14,14a-tetrahydroindolo[3′,2′:4,5]pyridine[2,1-a]isoquinoline-9(8H)-yl)methanol] gave an activity at 5 µM of 108%.

COc1ccc2c(c1)c1c(n2CO)CN2CCc3cc(OC)c(OCC(F)(F)F)cc3C2C1 (stereo not drawn) [Example A39, (3,12-Dimethoxy-2-(2,2,2-trifluoroethoxy)-5,6,14,14a-tetrahydroindolo[3′,2′:4,5]pyridine[2,1-a]isoquinoline-9(8H)-yl)methanol] was tested, and the activity at 5 µM was 147%.

In the case of COc1ccc2[nH]c3c(c2c1)C[C@@H]1c2cc(OC)c(OCc4ccc(C(F)(F)F)cc4)cc2CCN1C3 [(R)-C47, (R)-2,12-Dimethoxy-3-((4-(trifluoromethyl)benzyl)oxy)-5,6,8,9,14,14a-hexahydroindolo[3′,2′:4,5]pyrido[2,1-a]isoquinoline], the activity at 5 µM is reported as 292%.

COc1cc2c(cc1OCc1ccccc1F)C1Cc3c(n(CO)c4ccccc34)CN1CC2 (stereo not drawn) [Example A10, (2-((2-fluorobenzyl)oxy)-3-methoxy-5,6,14,14a-tetrahydroindolo[3′,2′:4,5]pyridine[2,1-a]isoquinoline-9(8H)-yl)methanol] gave an activity at 5 µM of 108%.

Work on COc1cc2c(cc1OCc1ccccc1F)C1Cc3c([nH]c4ccccc34)C(c3ccc(F)cc3)N1CC2 (stereo not drawn) [Example B10, 2-((2-fluorobenzyl)oxo)-8-(4-fluorophenyl)-3-methoxy-5,6,8,9,14,14a-hexahydroindole[3′,2′: 4,5]pyridine[2,1-a]isoquinoline] yielded an activity at 5 µM of 108%.

COc1cc2c(cc1OCc1ccc(C)cc1)CCN1Cc3[nH]c4ccccc4c3CC21 (stereo not drawn) [Example C60] gave an activity at 5 µM of 84.3%.

Molecule COc1ccc2[nH]c3c(c2c1)CC1c2cc(OC)c(OCc4cccc(F)c4)cc2CCN1C3 (stereo not drawn) [Example C51, 3-((3-Fluorobenzyl)oxo)-2,12-dimethoxy-5,6,8,9,14,14a-hexahydroindole[3′,2′:4,5]pyridine[2,1-a]isoquinoline] has an activity at 5 µM of 192%.

COc1ccc2[nH]c3c(c2c1)CC1c2cc(OCc4ccc(C)cc4)c(OC)cc2CCN1C3c1ccc(F)cc1 (stereo not drawn) [Example B15, 8-(4-Fluorophenyl)-3,12-dimethoxy-2-((4-methylbenzyl)oxo)-5,6,8,9,14,14a-hexahydroindolo[3′,2′:4,5]pyridine[2,1-a]isoquinoline] gave an activity at 5 µM of 111%.

For COc1ccc2[nH]c3c(c2c1)C[C@H]1c2cc(OC)c(OCc4ccc(C(F)(F)F)cc4)cc2CCN1C3 [(S)-C47, (S)-2,12-Dimethoxy-3-((4-(trifluoromethyl)benzyl)oxo)-5,6,8,9,14,14a-hexahydroindolo[3′,2′:4,5]pyrido[2,1-a]isoquinoline], the activity at 5 µM was 273%.

For COc1ccc2c(c1)c1c(n2CO)CN2CCc3cc(OCc4ccccc4)c(OC)cc3[C@@H]2C1 [(S)-A55], the activity at 5 µM was 120%.

OCn1c2c(c3ccccc31)CC1c3cc4c(cc3CCN1C2)OCO4 (stereo not drawn) [Example A109, (5,6,14,14a-tetrahydro-[1,3]dioxazo[4,5-g]indolo[3′,2′:4,5]pyridine[2,1-a]isoquinoline-9(8H)-yl)methanol] was tested, and the activity at 5 µM was 100%.

With CCOc1ccccc1OCCN[C@H](C)Cc1ccc(OC)c(S(N)(=O)=O)c1 [Positive control, Tamsulosin, reference compound] the activity at 5 µM was 138%.
